Experimental data from EP0973746B1, “SUBSTITUTED 3-CYANO QUINOLINES” (Wyeth Holdings Corporation, priority 1997, dated 1998).
Converted amounts (≈) assume the structure as drawn.

Key:
SW620 = test: Inhibition of cancer cell growth as measured by cell number, SW620; type: cell-based, human; details: Homo sapiens, SW-620, 48 h, cell number, Sulforhodamine B, 48 hours exposure; Table 4; read-out: IC50 SW620;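 further: SW620 was included as a cell line with little or no EGFR or HER2/neu expression, in contrast to receptor-overexpressing lines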
Text: (§1) The cell lines were chosen since they overexpressed epidermal growth factor receptor (EGFR) (i.e. A431) or HER2/neu (SKBR3), or had little to no expression of the these receptors (SW620, LOX, MCF7).

NEC = test: Inhibition of cancer cell growth as measured by cell number, NEC; type: cell-based; details: Homo sapiens; cell number, Sulforhodamine B, 48 hours exposure; Table 6; read-out: IC50 NEC
CCRF-CFM = test: Inhibition of cancer cell growth as measured by cell number, CCRF-CFM; type: cell-based; details: Homo sapiens; cell number, Sulforhodamine B, 48 hours exposure; Table 7; read-out: IC50 CCRF-CFM
LNCAP = test: Inhibition of cancer cell growth as measured by cell number, LNCAP; type: cell-based; details: Homo sapiens, cell number, Sulforhodamine B, 48 hours exposure, Table 7, read-out: IC50 LNCAP
SW948 = test: Inhibition of cancer cell growth as measured by cell number, SW948; type: cell-based; details: Homo sapiens, SW948; cell number, Sulforhodamine B, 48 hours exposure; Table 5; read-out: IC50 SW948
A27805 = test: Inhibition of cancer cell growth as measured by cell number, A27805; type: cell-based; details: Homo sapiens; cell number, Sulforhodamine B, 48 hours exposure; Table 4; read-out: IC50 A27805
COLO205 = test: Inhibition of cancer cell growth as measured by cell number, COLO205; type: cell-based; details: Homo sapiens, COLO 205; cell number, Sulforhodamine B, 48 hours exposure; Table 4; read-out: IC50 COLO205
HCT15 = test: Inhibition of cancer cell growth as measured by cell number, HCT15; type: cell-based; details: Homo sapiens, HCT-15; cell number, Sulforhodamine B, 48 hours exposure; Table 5; read-out: IC50 HCT15
MIP = test: Inhibition of cancer cell growth as measured by cell number, MIP; type: cell-based; details: Homo sapiens; cell number, Sulforhodamine B, 48 hours exposure; Table 4; read-out: IC50 MIP
A549 = test: Inhibition of cancer cell growth as measured by cell number, A549; type: cell-based; details: Homo sapiens, A549; cell number, Sulforhodamine B, 48 hours exposure; Table 6; read-out: IC50 A549
SKBR3 = test: Inhibition of cancer cell growth as measured by cell number, SKBR3; type: cell-based, human; details: Homo sapiens, SK-BR-3; cell number, Sulforhodamine B, 48 hours exposure; Table 7; read-out: IC50 SKBR3;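 further: SK-BR-3 cells were selected as a line overexpressing HER2/neu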
Text: as §1

LOX = test: Inhibition of cancer cell growth as measured by cell number, LOX; type: cell-based, human; details: Homo sapiens, LOX, 48 h, cell number, Sulforhodamine B, 48 hours exposure; Table 6; read-out: IC50 LOX;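 further: LOX cells served as a line with low or absent EGFR and HER2/neu expression, in contrast to receptor-overexpressing lines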
Text: as §1

[1] = target: recombinant human MEK 1 (MAPKK) and recombinant human ERK2 (MAPK); test: Mitogen Activated Protein Kinase (MAPK) assay, two component coupled MEK 1 / ERK2; type: biochemical; details: separate entries for the same compound = evaluated more than one time;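 further: MEK 1-activated ERK2 phosphorylates MBP or Myc peptide with 33P-ATP, filter capture and scintillation counting, inhibitor preincubated with ERK2 30 min at 0 °C, inhibition relative to uninhibited control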
T47D = test: Inhibition of cancer cell growth as measured by cell number, T47D; type: cell-based; details: Homo sapiens, cell number, Sulforhodamine B, 48 hours exposure, Table 6, read-out: IC50 T47D
[2] = target: epidermal growth factor receptor kinase (Homo sapiens, UniProt P00533); test: biochemical
Chain of epidermal growth factor receptor kinase (P00533 25-1210): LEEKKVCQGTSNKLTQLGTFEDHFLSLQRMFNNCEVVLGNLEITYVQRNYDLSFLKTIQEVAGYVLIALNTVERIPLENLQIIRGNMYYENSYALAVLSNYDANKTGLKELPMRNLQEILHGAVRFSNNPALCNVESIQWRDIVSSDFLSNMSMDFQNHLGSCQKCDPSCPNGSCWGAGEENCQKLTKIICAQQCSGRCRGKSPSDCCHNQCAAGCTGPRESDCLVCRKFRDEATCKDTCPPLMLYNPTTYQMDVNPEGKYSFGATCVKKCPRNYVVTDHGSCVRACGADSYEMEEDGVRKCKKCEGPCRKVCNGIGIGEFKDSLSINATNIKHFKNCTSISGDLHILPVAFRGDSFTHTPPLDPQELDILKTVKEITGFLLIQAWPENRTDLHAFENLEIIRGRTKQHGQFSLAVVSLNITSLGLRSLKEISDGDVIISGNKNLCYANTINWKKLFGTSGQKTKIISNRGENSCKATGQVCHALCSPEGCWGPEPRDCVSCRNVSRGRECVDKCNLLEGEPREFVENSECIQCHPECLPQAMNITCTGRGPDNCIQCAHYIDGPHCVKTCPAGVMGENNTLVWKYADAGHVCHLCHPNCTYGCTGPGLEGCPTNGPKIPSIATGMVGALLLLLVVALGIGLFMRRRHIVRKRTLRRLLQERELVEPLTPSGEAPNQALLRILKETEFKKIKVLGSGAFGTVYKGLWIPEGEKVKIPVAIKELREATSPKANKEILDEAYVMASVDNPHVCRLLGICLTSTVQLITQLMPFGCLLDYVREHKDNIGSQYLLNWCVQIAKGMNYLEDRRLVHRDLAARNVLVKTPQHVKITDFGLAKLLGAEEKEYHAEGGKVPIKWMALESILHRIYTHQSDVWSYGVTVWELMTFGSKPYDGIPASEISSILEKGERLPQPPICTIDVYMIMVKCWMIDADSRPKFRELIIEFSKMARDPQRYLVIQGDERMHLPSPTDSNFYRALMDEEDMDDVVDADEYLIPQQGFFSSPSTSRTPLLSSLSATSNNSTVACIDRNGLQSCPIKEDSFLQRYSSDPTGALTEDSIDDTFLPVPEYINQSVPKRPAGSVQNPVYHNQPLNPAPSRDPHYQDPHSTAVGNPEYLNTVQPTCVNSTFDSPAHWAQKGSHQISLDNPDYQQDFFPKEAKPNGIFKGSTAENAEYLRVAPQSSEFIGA

HL60 = test: Inhibition of cancer cell growth as measured by cell number, HL60; type: cell-based; details: Homo sapiens, HL-60; cell number, Sulforhodamine B, 48 hours exposure; Table 7; read-out: IC50 HL60
LS174T = test: Inhibition of cancer cell growth as measured by cell number, LS174T; type: cell-based; details: Homo sapiens, cell number, Sulforhodamine B, 48 hours exposure, Table 5, read-out: IC50 LS174T
A431 [3] = test: Inhibition of cancer cell growth as measured by cell number, A431; type: cell-based, human; details: Homo sapiens, A-431, 48 h, cell number, Sulforhodamine B, 48 hours exposure; Table 6; read-out: IC50 A431;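 further: human A431 line, picked because it overexpresses epidermal growth factor receptor (EGFR)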
Text: as §1

CX1 = test: Inhibition of cancer cell growth as measured by cell number, CX1; type: cell-based; details: Homo sapiens, CX-1; cell number, Sulforhodamine B, 48 hours exposure; Table 4; read-out: IC50 CX1
A2780DDP = test: Inhibition of cancer cell growth as measured by cell number, A2780DDP; type: cell-based; details: Homo sapiens; cell number, Sulforhodamine B, 48 hours exposure; Table 4; read-out: IC50 A2780DDP
DU145 = test: Inhibition of cancer cell growth as measured by cell number, DU145; type: cell-based; details: Homo sapiens, DU-145; cell number, Sulforhodamine B, 48 hours exposure; Table 7; read-out: IC50 DU145
PC3 = test: Inhibition of cancer cell growth as measured by cell number, PC3; type: cell-based; details: Homo sapiens, PC-3; cell number, Sulforhodamine B, 48 hours exposure; Table 7; read-out: IC50 PC3
MCF7 = test: Inhibition of cancer cell growth as measured by cell number, MCF7; type: cell-based, human; details: Homo sapiens, MCF7, 48 h, cell number, Sulforhodamine B, 48 hours exposure; Table 5; read-out: IC50 MCF7;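 further: MCF7 was included as a line with little or no EGFR or HER2/neu expression, in contrast to the receptor-overexpressing lines of the panel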
Text: as §1

B7474 = test: Inhibition of cancer cell growth as measured by cell number, B7474; type: cell-based; details: Homo sapiens; cell number, Sulforhodamine B, 48 hours exposure; Table 6; read-out: IC50 B7474
NHEK = test: Inhibition of cell growth by incorporation of [3H]-thymidine, NHEK; type: cell-based, human; details: Homo sapiens, [3H]-thymidine incorporation, read-out: IC50 NHEK
Experimental: (§2) Representative compounds of this invention were evaluated for their ability to inhibit the growth of the cell lines described below in vitro. The inhibition is quantitated by measuring the decrease in the incorporation of radio-labeled thymidine when the cells are grown in the presence of the inhibitor. […] Cells were routinely grown in a humidified incubator in 5% CO2 in air.
(§3) Cells were seeded at 10,000 cells/well in 96 well plates in complete media and allowed to grow to log phase. At this stage the complete media was replaced with media containing 0.5% FBS (for cells growing in 10% FBS) or media lacking epidermal growth factor (EGF) (for cells growing in serum free media). […] Media with test compound was then removed and complete media was added back. The cells were allowed to grow for 18 hours. This is followed by incubation in [^3H]thymidine (1mCi/ml in serum/EGF media) for 4 hours. Cells were lysed in 0.5 M NaOH for at least 30 min at 37°C and radioactivity analyzed.
(§4) The % inhibition of the compound evaluated was determined for at least three different concentrations and the IC50 value evaluated from the dose response curve. […] CPM(control) is in units of counts per minute and is a number expressing the amount of [^3H]thymidine incorporated onto the DNA when cells are grown in the absence of test compound as measured by liquid scintillation counting.

A431 [4] = test: Inhibition of cell growth by incorporation of [3H]-thymidine, A431; type: cell-based, human; details: Homo sapiens, A-431; [3H]-thymidine incorporation; A431; read-out: IC50 A431
Experimental: as §2, §3, §4

LX1 = test: Inhibition of cancer cell growth as measured by cell number, LX1; type: cell-based; details: Homo sapiens, LX-1; cell number, Sulforhodamine B, 48 hours exposure; Table 6; read-out: IC50 LX1
CACO2 = test: Inhibition of cancer cell growth as measured by cell number, CACO2; type: cell-based; details: Homo sapiens, Caco-2; cell number, Sulforhodamine B, 48 hours exposure; Table 5; read-out: IC50 CACO2
HTB161 = test: Inhibition of cancer cell growth as measured by cell number, HTB161; type: cell-based; details: Homo sapiens; cell number, Sulforhodamine B, 48 hours exposure; Table 4; read-out: IC50 HTB161
CCL228 = test: Inhibition of cancer cell growth as measured by cell number, CCL228; type: cell-based; details: Homo sapiens; cell number, Sulforhodamine B, 48 hours exposure; Table 5; read-out: IC50 CCL228

SMILES: CCCC(=O)Nc1ccc2ncc(C#N)c(Nc3cccc(Br)c3)c2c1 [Example 17, N-[4-[(3-Bromophenyl)amino]-3-cyano-6-quinolinyl] butanamide]
- IC50 (SW620): > 100 mg/L
- IC50 (NEC): > 100 mg/L
- IC50 (CCRF-CFM): > 100 mg/L
- IC50 (LNCAP): 90 mg/L (≈ 220 µM)
- IC50 (SW948): > 100 mg/L
- IC50 (A27805): 9.8 mg/L (≈ 23.9 µM)
- IC50 (COLO205): > 100 mg/L
- IC50 (HCT15): 98.9 mg/L (≈ 242 µM)
- IC50 (MIP): 100 mg/L (≈ 244 µM)
- IC50 (A549): > 100 mg/L
- IC50 (SKBR3): 79.7 mg/L (≈ 195 µM)
- IC50 (LOX): 74.2 mg/L (≈ 181 µM)
- IC50 [1]: > 100 µM
- IC50 (T47D): > 100 mg/L
- IC50 [2]: 9 µM
- IC50 (HL60): > 100 mg/L
- IC50 (LS174T): 87 mg/L (≈ 213 µM)
- IC50 (A431 [3]): 38.1 mg/L (≈ 93 µM)
- IC50 (CX1): 81.9 mg/L (≈ 200 µM)
- IC50 (A2780DDP): 60.4 mg/L (≈ 147 µM)
- IC50 (DU145): 7.81 mg/L (≈ 19.1 µM)
- IC50 (PC3): > 100 mg/L
- IC50 (MCF7): 68.2 mg/L (≈ 167 µM)
- IC50 (B7474): 95.7 mg/L (≈ 234 µM)
- IC50 (NHEK): 9 µM
- IC50 (A431 [4]): 25 µM
- IC50 (LX1): > 100 mg/L
- IC50 (CACO2): 5.63 mg/L (≈ 13.8 µM)
- IC50 (HTB161): 7.89 mg/L (≈ 19.3 µM)
- IC50 (CCL228): > 100 mg/L

SMILES: N#Cc1cnc2ccc([N+](=O)[O-])cc2c1Nc1ccc(Br)c(Br)c1 [Example 20, 4-[(3,4-Dibromophenyl)amino]-6-nitro-3-quinolinecarbonitrile]
- IC50 (NHEK): 0.65 µM
- IC50 (A431 [4]): 35 µM
